Laboratory results as given in patent US7235536B2, “Cellulose sulfate and other sulfated polysaccharides to prevent and treat papilloma virus infection and other infections” (Rush Presbyterian-St. Luke's Medical Center, priority 2000, dated 2007).
Values joined by “and” are separate entries in the source; they are usually repeats but may differ in a detail not shown here. Equal entries are not always repeated. Where two headings read alike, the source gives them in different places. Marks after values point to notes of the source that are not given here.

Assays:
Fusobacterium nucleatum [1] = assay: Broth method MIC; format: cell-based; conditions: for CS MIC: Broth (study 2)
Prevotella disiens = assay: Broth method MIC; format: cell-based; conditions: for CS MIC: Broth (study 2)
[2] = tested on: Peptostreptococcus magnus
Prevotella bivia = assay: Broth method MIC; format: cell-based
Fusobacterium nucleatum [3] = tested on: Fusobacterium nucleatum
[4] = tested on: Porphyromonas asaccharolytica; assay: Broth method MIC; format: cell-based; conditions: for CS MIC: Broth (study 2)
[5] = tested on: Bovine Papillomavirus type I; assay: BPV cell focus formation assay (Tables A, B); format: cell-based, bovine papilloma virus
Protocol: Cellulose sulfate was tested for its ability to inhibit BPV infection by cell focus formation assay (see Hermonat et al. (1992) for a description of this assay). Cellulose sulfate from Dextran Products Limited (Lot 80971 in the form of sodium cellulose sulfate, known as Ushercell J.) was mixed with BPV type I (obtained from bovine fibropapillomas) prior to adding the virus to mouse fibroblast line […] cells or mixed with these host cells first prior to adding the virus. In one molecular weight study, the Mr range of cellulose sulfate was about 750 to 20.3 million, with an average Mr of about 1.01 million. […] In another study, the average molecular weight was determined to be about 1.9 million with a peak Mr of about 2.3 million. Unless otherwise specified, the Mr is in daltons. The assay was repeated using different concentrations of cellulose sulfate and the results are shown below.

HPV-40 = assay: RT-PCR ELISA for transient infection of human A431 cells, HPV-40; format: cell-based, human papilloma virus; conditions: with virus (HPV-40)
Protocol: Cellulose sulfate and dextran sulfate were each prepared as a 2 mg/ml solution in 0.9% NaCl and tested for microbicidal activity using the in vitro HPV transient infection assay originally described by Smith and colleagues (Smith, L. H., C. Foster, M. E. Hitchcock, and R. Isseroff. 1993. In vitro HPV-11 infection of human foreskin. J. Invest. Dermatol. 101:292-295) with some modifications (Ludmerer, S. W., W. L. McClements, X. M. Wang, J. C. Ling, K. U. Jansen, and N. D. Christensen. 2000. HPV11 mutant virus-like parties elicit immune responses that neutralize virus and delineate a novel neutralizing domain. Virology 266:237-245). An ELISA-based read-out of Optical Density (OD) values using alkaline phosphatase cleavage of the substrate p-nitrophenyl phosphate was also used to measure HPV infection as described below.
The RT-PCR assay to detect HPV-40 infection was designed similarly for the detection of HPV-11 infection as described above.
A modification of the RT-PCR assay that incorporates an ELISA-based read-out (Boehringer-Mannheim) was also included to assess microbicidal activity. Replicate cell cultures of A431 cells were infected with an aliquot of infectious HPV virions as described above. After 4 days of culture, cells were harvested and RNA extracted. RNA was subjected to RT using downstream anti-sense (reverse) primers for HPV-11 or HPV-40 and β-actin (as a control/housekeeping cellular transcript) to initiate cDNA synthesis. The cDNA was processed through 2 sets of 30 cycles of PCR amplification using nested primers: the second set of cycles used digoxygenin (DIG)-dUTP to label the PCR products with DIG. DIG-labeled PCR products were denatured then renatured together with a biotinylated oligonucleotide specific for the targeted PCR product. Biotinylated products were detected in ELISA with plates coated with streptavidin (to capture the biotinylated target PCR product) then anti-DIG antibody and substrate. Labeled PCR products were added directly to ELISA plates, or titrated at 10-fold dilutions in duplicate for each cell culture for each virus dilution.
The microbicidal activity was assessed either as the detection of ethidium stained PCR products or as an ELISA-based read-out as described above. […] An initial experiment was conducted to test the specificity of the ELISA-based RT-PCR assay using HPV-11 and HPV-40 infection of A431 cells (Table E).

Eubacterium lentum = assay: Broth method MIC; format: cell-based; conditions: for CS MIC: Broth (study 2)
[6] = tested on: Peptostreptococcus magnus; assay: Broth method MIC; format: cell-based; conditions: for CS MIC: Broth (study 2)
trichomonas vaginalis = assay: Inhibition of Trichomonas growth, live count; format: cell-based; conditions: for number of live trichomonas: 5 mg/ml
Protocol: The inhibitory effect of CS on trichomonas vaginalis, protozoa known to cause vaginitis, is shown below. The organisms were grown in modified Diamond's medium. CS was mixed with the organism in modified Diamond's medium at a final concentration of about 5 mg/ml (5.12 mg/ml) and incubated anaerobically at 35° C. Samples were collected at various time points and the number of live trichomonas counted with a hemacytomer. The same procedure was performed in the absence of CS. The volume of the inoculum was varied as indicated in the Tables to study the effect of increasing amounts of the organism on the results.

Clostridium perfringes = assay: Broth method MIC; format: cell-based; conditions: for CS MIC: Broth (study 2)

Q: Which results are given for sodium cellulose sulfate?
A: growth inhibition (Fusobacterium nucleatum [1]; both strains, broth method): inhibited; CS MIC (Fusobacterium nucleatum [1]; rma# 10481): 5000 µg/mL; CS MIC (Fusobacterium nucleatum [1]; rma# 11518): 10000 µg/mL; growth inhibition (Prevotella disiens; all strains): inhibited; CS MIC (Prevotella disiens; rma# 11579): 10000 µg/mL; CS MIC (Prevotella disiens; rma# 11698): 10000 µg/mL; CS MIC [2]: >0.625** mg/ml; growth inhibition (Prevotella bivia; all strains): inhibited; CS MIC (Prevotella bivia; rma# 11683, Broth (study 1)): NI (not inhibited by 10 mg/ml (the highest concentration tested)); CS MIC (Prevotella bivia; rma# 11683, Broth (study 2)): 5000 µg/mL; CS MIC (Prevotella bivia; rma# 11697, Broth (study 1)): 600 µg/mL; CS MIC (Prevotella bivia; rma# 11697, Broth (study 2)): 5000 µg/mL; CS MIC (Fusobacterium nucleatum [3]): >0.625** mg/ml; growth inhibition ([4]; at the concentrations tested): Two strains of Porphyromonas asaccharolytica were inhibited but a third one was not; CS MIC ([4]; rma# 11656): 5000 µg/mL; CS MIC ([4]; rma# 11690): NI (not inhibited by 10 mg/ml (the highest concentration tested)); inhibition of infection ([5]; 40 μg/ml, mixed first with the virus): partial inhibition; inhibition of infection ([5]; 40 μg/ml, pre-incubated with host cells): Complete inhibition; inhibition of infection ([5]; 200 ug/ml, pre-incubated with the virus before addition to the host cells): almost complete inhibition; formation of oncogenic foci by the virus ([5]; 500 μg/ml, mixed with the virus or with the host cells): completely inhibited; Viral-induced foci per culture ([5]; Table A, 5.0 μg/ml, pre-incubated with host cells prior to addition to virus): 72 foci per culture and 60 foci per culture; Viral-induced foci per culture ([5]; Table A, 5.0 μg/ml, pre-incubated with virus prior to addition to host cells): 121 foci per culture and 97 foci per culture; Viral-induced foci per culture ([5]; Table A, 50 μg/ml, pre-incubated with host cells prior to addition to virus): 10 foci per culture and 12 foci per culture; Viral-induced foci per culture ([5]; Table A, 50 μg/ml, pre-incubated with virus prior to addition to host cells): 37 foci per culture and 32 foci per culture; Viral-induced foci per culture ([5]; Table A, 500 μg/ml, pre-incubated with host cells prior to addition to virus): 0^A foci per culture and 0 foci per culture; Viral-induced foci per culture ([5]; Table A, 500 μg/ml, pre-incubated with virus prior to addition to host cells): 0^A foci per culture and 0 foci per culture; Viral-induced foci per culture ([5]; Table A, 5000 μg/ml, pre-incubated with host cells prior to addition to virus): 0^B foci per culture and 0 foci per culture; Viral-induced foci per culture ([5]; Table A, 5000 μg/ml, pre-incubated with virus prior to addition to host cells): 0^B foci per culture and 0 foci per culture; Viral-induced foci per culture ([5]; Table B, 1.6 μg/ml, pre-incubated with virus prior to addition to host cells): 196 foci per culture and 168 foci per culture; Viral-induced foci per culture ([5]; Table B, 8.0 μg/ml, pre-incubated with host cells prior to addition to virus): 5 foci per culture and 3 foci per culture; Viral-induced foci per culture ([5]; Table B, 40 μg/ml, pre-incubated with host cells prior to addition to virus): 0 foci per culture; Viral-induced foci per culture ([5]; Table B, 40 μg/ml, pre-incubated with virus prior to addition to host cells): 116 foci per culture and 104 foci per culture; Viral-induced foci per culture ([5]; Table B, 200 μg/ml, pre-incubated with host cells prior to addition to virus): 0 foci per culture; Viral-induced foci per culture ([5]; Table B, 200 μg/ml, pre-incubated with virus prior to addition to host cells): 34 foci per culture and 42 foci per culture; Mean (SD) of O.D. reading for RT-PCR ELISA, HPV-40 probe (HPV-40; 10 μg/ml at viral pretreatment): 0.397 (0.050) O.D.; Mean (SD) of O.D. reading for RT-PCR ELISA, HPV-40 probe (HPV-40; 100 μg/ml at viral pretreatment): 0.128 (0.008) O.D.; Mean (SD) of O.D. reading for RT-PCR ELISA, HPV-40 probe (HPV-40; 1000 μg/ml at viral pretreatment): 0.037 (0.004) O.D.; growth inhibition (Eubacterium lentum; both strains): inhibited; CS MIC (Eubacterium lentum; rma# 9420): 5000 µg/mL; CS MIC (Eubacterium lentum; rma# 11700): 10000 µg/mL; growth inhibition ([6]; all strains): inhibited; CS MIC ([6]; rma# 11598): 5000 µg/mL; CS MIC ([6]; rma# 11658): 5000 µg/mL; growth of the trichomonas culture (trichomonas vaginalis; 5 mg/ml CS): Complete inhibition of growth; number of live trichomonas (trichomonas vaginalis; 16 hr, 50 μl Trich): 0 organisms per ml; number of live trichomonas (trichomonas vaginalis; 16 hr, 100 μl Trich): 0 organisms per ml; number of live trichomonas (trichomonas vaginalis; 16 hr, 200 μl Trich): 0 organisms per ml; number of live trichomonas (trichomonas vaginalis; 16 hr, 400 μl Trich): 0 organisms per ml; number of live trichomonas (trichomonas vaginalis; 24 hr, 50 μl Trich): 0 organisms per ml; number of live trichomonas (trichomonas vaginalis; 24 hr, 100 μl Trich): 0 organisms per ml; number of live trichomonas (trichomonas vaginalis; 24 hr, 200 μl Trich): 0 organisms per ml; number of live trichomonas (trichomonas vaginalis; 24 hr, 400 μl Trich): 0 organisms per ml; number of live trichomonas (trichomonas vaginalis; 40 hr, 50 μl Trich): 0 organisms per ml; number of live trichomonas (trichomonas vaginalis; 40 hr, 100 μl Trich): 0 organisms per ml; number of live trichomonas (trichomonas vaginalis; 40 hr, 200 μl Trich): 0 organisms per ml; number of live trichomonas (trichomonas vaginalis; 40 hr, 400 μl Trich): 0 organisms per ml; number of live trichomonas (trichomonas vaginalis; 48 hr, 50 μl Trich): 0 organisms per ml; number of live trichomonas (trichomonas vaginalis; 48 hr, 100 μl Trich): 0 organisms per ml; number of live trichomonas (trichomonas vaginalis; 48 hr, 200 μl Trich): 0 organisms per ml; number of live trichomonas (trichomonas vaginalis; 48 hr, 400 μl Trich): 0 organisms per ml; growth inhibition (Clostridium perfringes; at the concentrations tested): inhibited one strain of Clostridium perfringes but not another one; CS MIC (Clostridium perfringes; rma# 11608): 10000 µg/mL; CS MIC (Clostridium perfringes; rma# 11655): NI (not inhibited by 10 mg/ml (the highest concentration tested))
